The source made the active and inactive calls. No cut-off for these calls is given here. Where a SMILES comes first, the peptide text is derived from it. Bridges are numbered along the chain shown (N, C = ends).
How the values were obtained:
Toll-like receptor 4 [1] = target: T1, Toll-like receptor 4 (Homo sapiens, UniProt O00206); test: Antagonist activity at TLR4 in human THP1 cells assessed as reduction in LPS-induced NFkappaB p65 phosphorylation at 50 uM after 15 to 30 mins by Western blot analysis; assay type: cell-based
Rattus norvegicus [2] = test: (§1) Antiarthritic activity in Lewis rat model of complete Freund's adjuvant-induced arthritis assessed as reduction in inflammation synovial tissues at 1 nmol/g administered intra-articularly into knee joint after 6 week by Safranin-O staining based histopathological analysis; assay type: functional, organism-based
[3] = target: T2, Toll-like receptor 4 (Mus musculus) (UniProt Q9QUK6); test: Antagonist activity at TLR4 in mouse RAW264.7 cells assessed as reduction in LPS-induced cytosolic NO level at 50 uM by DAF-FM staining based FACS analysis; assay type: cell-based
T2 sequence (whole entry): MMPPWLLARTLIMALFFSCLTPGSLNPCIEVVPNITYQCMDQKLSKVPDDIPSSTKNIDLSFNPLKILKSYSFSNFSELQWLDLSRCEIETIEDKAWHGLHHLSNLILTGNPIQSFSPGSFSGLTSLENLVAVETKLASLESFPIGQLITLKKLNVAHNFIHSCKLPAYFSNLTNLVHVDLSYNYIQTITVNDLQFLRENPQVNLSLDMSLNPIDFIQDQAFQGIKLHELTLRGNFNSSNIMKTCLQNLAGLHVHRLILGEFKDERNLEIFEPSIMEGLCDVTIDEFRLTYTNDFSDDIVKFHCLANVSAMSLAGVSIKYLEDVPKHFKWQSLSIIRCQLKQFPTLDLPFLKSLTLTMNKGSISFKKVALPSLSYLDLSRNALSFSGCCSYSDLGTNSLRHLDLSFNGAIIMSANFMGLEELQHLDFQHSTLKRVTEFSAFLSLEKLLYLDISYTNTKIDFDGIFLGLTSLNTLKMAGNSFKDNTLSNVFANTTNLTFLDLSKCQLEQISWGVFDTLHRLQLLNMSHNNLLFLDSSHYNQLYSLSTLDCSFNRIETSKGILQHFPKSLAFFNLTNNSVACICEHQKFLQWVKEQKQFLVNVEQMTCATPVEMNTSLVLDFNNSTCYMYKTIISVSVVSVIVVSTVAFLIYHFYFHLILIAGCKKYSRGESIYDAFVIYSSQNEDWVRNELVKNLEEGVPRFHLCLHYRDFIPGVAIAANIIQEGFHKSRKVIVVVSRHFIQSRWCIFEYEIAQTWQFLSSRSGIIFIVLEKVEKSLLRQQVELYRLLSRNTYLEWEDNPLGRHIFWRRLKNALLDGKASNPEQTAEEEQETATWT

Rattus norvegicus [4] = test: as §1, with “regeneration of glycosaminoglycans at the border between bone and cartilage” for “reduction in inflammation synovial tissues”, “measured on third” for “after 6”; assay type: functional, organism-based
[5] = target: T2, Toll-like receptor 4 (Mus musculus); test: Antagonist activity at TLR4 in mouse RAW264.7 cells assessed as reduction in LPS-induced IFNbeta secretion at 5 to 50 uM after 24 hrs by ELISA; assay type: cell-based
Toll-like receptor 4 [6] = target: T1, Toll-like receptor 4; test: Antagonist activity at TLR4 in human THP1 cells assessed as reduction in LPS-induced IRF3 phosphorylation at 50 uM after 120 to 240 mins by Western blot analysis; assay type: cell-based
[7] = target: T2, Toll-like receptor 4 (Mus musculus); test: Antagonist activity at TLR4 in mouse RAW264.7 cells assessed as reduction in LPS-induced IFNalpha secretion at 5 to 50 uM after 24 hrs by ELISA; assay type: cell-based
[8] = target: T2, Toll-like receptor 4 (Mus musculus); test: Antagonist activity at TLR4 in mouse BMDM cells assessed as reduction in LPS-induced extracellular NO secretion by spectrophotometric method; assay type: cell-based
[9] = target: T2, Toll-like receptor 4 (Mus musculus); test: Antagonist activity at TLR4 in mouse RAW264.7 cells assessed as reduction in LPS-induced p38 phosphorylation at 80 uM after 15 to 30 mins by Western blot analysis; assay type: cell-based
Toll-like receptor 4 [10] = target: T1, Toll-like receptor 4; test: Antagonist activity at TLR4 in human PBMC cells assessed as reduction in LPS-induced ERK phosphorylation at 80 uM after 15 to 30 mins by Western blot analysis; assay type: cell-based
[11] = target: T2, Toll-like receptor 4 (Mus musculus); test: Binding affinity to TLR4 in mouse RAW264.7 cells assessed as colocalization of TLR4 in plasma membrane at 40 uM preincubated for 1 hr followed by LPS challenge and measured after 30 mins using FITC-labelled compound by Alexafluor-488/Hoechst 33258 staining based immunofluorescence confocal microscopic method; assay type: cell-based
[12] = target: Toll-like receptor 1/2 (Homo sapiens) (UniProt O60603+Q15399); test: Antagonist activity at TLR2/1 in human PBMC cells assessed as reduction in PAM3CSK4-induced IL6 secretion at 20 to 80 uM after 24 hrs by ELISA; assay type: cell-based
TLR2/TLR6 (Mus musculus) = TLR2/TLR6 (Mus musculus) (UniProt Q9QUN7+Q9EPW9); test: Antagonist activity at TLR2/6 in mouse RAW264.7 cells assessed as reduction in FSL-1-induced TNFalpha secretion at 20 to 80 uM after 24 hrs by ELISA; assay type: cell-based
[13] = target: T2, Toll-like receptor 4 (Mus musculus); test: Antagonist activity at TLR4 in mouse RAW264.7 cells assessed as reduction in LPS-induced IFNbeta secretion after 24 hrs by ELISA; assay type: cell-based
[14] = target: T2, Toll-like receptor 4 (Mus musculus); test: Antagonist activity at TLR4 in mouse RAW264.7 cells assessed as reduction in LPS-induced COX2 expression at 80 uM by Western blot analysis; assay type: cell-based
Toll-like receptor 4 [15] = target: T1, Toll-like receptor 4; test: Antagonist activity at TLR4 in human PBMC cells assessed as reduction in LPS-induced IL6 secretion at 20 to 80 uM after 24 hrs by ELISA; assay type: cell-based
Toll-like receptor 4 [16] = target: T1, Toll-like receptor 4; test: Antagonist activity at TLR4 in human PBMC cells assessed as reduction in LPS-induced TNFalpha secretion at 20 to 80 uM after 24 hrs by ELISA; assay type: cell-based

T1 sequence (O00206 whole entry): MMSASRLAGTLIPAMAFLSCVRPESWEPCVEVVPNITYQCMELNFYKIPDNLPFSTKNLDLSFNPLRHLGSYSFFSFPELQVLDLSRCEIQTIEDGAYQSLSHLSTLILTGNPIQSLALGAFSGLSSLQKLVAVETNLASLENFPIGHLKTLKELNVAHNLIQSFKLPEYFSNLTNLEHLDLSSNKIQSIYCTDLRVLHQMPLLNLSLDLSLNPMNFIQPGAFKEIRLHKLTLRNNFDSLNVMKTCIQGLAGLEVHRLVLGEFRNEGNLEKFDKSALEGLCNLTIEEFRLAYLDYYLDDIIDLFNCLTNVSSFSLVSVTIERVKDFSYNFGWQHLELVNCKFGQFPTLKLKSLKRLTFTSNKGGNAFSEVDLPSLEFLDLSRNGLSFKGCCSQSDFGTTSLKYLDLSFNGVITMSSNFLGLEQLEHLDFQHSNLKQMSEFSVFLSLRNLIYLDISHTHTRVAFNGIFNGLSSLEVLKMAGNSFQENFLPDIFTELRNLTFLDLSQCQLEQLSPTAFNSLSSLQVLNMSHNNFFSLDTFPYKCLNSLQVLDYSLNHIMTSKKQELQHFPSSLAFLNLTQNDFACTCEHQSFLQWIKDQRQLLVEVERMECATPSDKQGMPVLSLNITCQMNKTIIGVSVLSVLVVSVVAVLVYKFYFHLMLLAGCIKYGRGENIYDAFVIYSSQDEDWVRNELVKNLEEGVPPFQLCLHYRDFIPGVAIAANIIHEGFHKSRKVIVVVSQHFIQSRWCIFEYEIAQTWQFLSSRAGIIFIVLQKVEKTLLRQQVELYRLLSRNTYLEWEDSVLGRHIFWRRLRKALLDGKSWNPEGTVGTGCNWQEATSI

| Activity (Toll-like receptor 4 [1]) | Activity [3] | Activity [5] | Activity (Toll-like receptor 4 [6]) | Activity [7] | Activity [8] | Activity [9] | Activity (Toll-like receptor 4 [10]) | Activity [11] | Activity [12] | Activity (TLR2/TLR6 (Mus musculus)) | Activity [13] | Activity [14] | Activity (Toll-like receptor 4 [15]) | Activity (Toll-like receptor 4 [16]) | Compound | Activity (Rattus norvegicus [2]) | Activity (Rattus norvegicus [4]) |
| --- | --- | --- | --- | --- | --- | --- | --- | --- | --- | --- | --- | --- | --- | --- | --- | --- | --- |
| Active | Active | Active | Active | Active | – | – | – | – | – | – | – | – | – | – | CC[C@H](C)[C@@H]1NC(=O)[C@H](Cc2c[nH]c3ccccc23)NC(=O)[C@H](Cc2c[nH]c3ccccc23)NC(=O)[C@@H](NC(=O)[C@H](CO)NC(=O)[C@H](Cc2ccccc2)NC(=O)[C@@H](NC(=O)CNC(=O)[C@@H](N)CC(C)C)C(C)C)CC(=O)NCCCC[C@@H](C(=O)N[C@@H](CC(C)C)C(=O)N[C@H](C(=O)O)C(C)C)NC1=O (H-LGVFSDWWIKLV-OH; lactam 6-10) | Active | Active |
| – | – | – | – | – | Dose-dependent effect | Active | Active | Active | inactive | inactive | Dose-dependent effect | Active | Active | Active | H-LGVFSSWWIKLV-OH | – | – |
